As a reminder, the IC50 is the point on the concentration scale where inhibition reaches its midpoint.

Bounds are passed on as bounds.

The test system of the first test is HCT-116. As to the kind of experiment: In vitro APC inhibition assay (MTT), HCT-116. Type of test: cell-based. Particulars: Homo sapiens, HCT-116, read-out: IC50 (nM) in HCT-116. The procedure: (§1) The small molecule anti-cancer compounds were evaluated for the ability to inhibit the activity of APC in an in vitro assay.
Reagents required for the assay are: (3-[4,5-Dimethylthiazol-2-yl]-2,5-diphenyltetrazolium bromide; Thiazolyl blue; RPI corp., cat# M92050); RPMI-1640 or Medium of Choice (i.e. DMEM) without phenol red; 1M Hepes; 100 mM NaPyruvate; 1000× Gentamicin (50 mg/ml); 100× Penicillin/Streptomycin/Fungizone; 1×PBS; Triton X-100; 1N HCl and Isopropanol. To make the MTT solution (10×), MTT powder was dissolved into complete RPMI (or DMEM solution) to a final concentration of 5 mg/mL and was sterilized by filtration with a 0.2 μm filter. The MTT solubilization solution contained 10% Triton X-100, 0.1N and 80% isopropanol. MTT solution was diluted to 1× with complete medium at 12 mL per plate. The culture dishes (96 wells) were removed from the incubator and the media was discarded. The plates were washed three times with 1×PBS. 100 μl of 1×MTT solution was added to each well and the plates were incubated in a tissue culture incubator for 2-4 hours, depending on the cell line. The cells were removed from the incubator and the MTT solution was discarded. 200 μl of 1×MTT solubilization solution was added to each well using a multi-channel pipetor and the cells were placed on an orbital shaker for 10 minutes. The results were read on a microtiter plate reader (absorbance=570 nm, reference=700 nm) and data was exported.
(§2) Percent inhibition was determined relative to control reactions without inhibitor, and half maximal inhibitory concentration (IC50) values were determined using a standard four parameter fit to the inhibition data.
`CC1CCN(C2CCN(S(=O)(=O)c3cccc(-c4ccccc4)c3)CC2)CC1`: the IC50 was more than 10000 nM.

Turning to `CC1CCN(C2CCN(S(=O)(=O)c3ccc(Cl)c(Cl)c3)CC2)CC1`, the IC50 was more than 10000 nM.

For `CC1CCN(C2CCN(S(=O)(=O)c3ccc(-c4ccccc4F)cc3)CC2)CC1`, the concentration for half-maximal inhibition (IC50) was more than 10000 nM.

On to `Cc1cc(C)c(S(=O)(=O)N2CCC(N3CCOCC3)CC2)c(C)c1`, for which the IC50 was more than 10000 nM.

As to `Cc1cc(C)c(S(=O)(=O)N2CCC(N3CCC(CCC#N)CC3)CC2)c(C)c1`, the IC50 was more than 10000 nM.

`Cc1nc(Cl)sc1S(=O)(=O)N1CCC(N2CCC(C)CC2)CC1`: the IC50 was more than 10000 nM.

For `Cc1cc(C)c(S(=O)(=O)N2CCC(N3CCC(Cc4ccccc4)CC3)CC2)c(C)c1`, the IC50 is more than 10000 nM.

On to `CC1CCN(C2CCN(S(=O)(=O)c3ccc(Br)cc3OC(F)(F)F)CC2)CC1`, for which the half-inhibitory concentration (IC50) was more than 10000 nM.

For the molecule `CC1CCN(C2CCN(S(=O)(=O)c3ccccc3Br)CC2)CC1`, the IC50 is more than 10000 nM.

With `COc1ccc(Br)cc1S(=O)(=O)N1CCC(N2CCC(C)CC2)CC1`, the IC50 was more than 10000 nM.

Turning to `Cc1cc(C)c(S(=O)(=O)N2CCC(N3CCC(c4ccccc4)CC3)CC2)c(C)c1`, the IC50 was more than 10000 nM.

Consider `COc1ccc(S(=O)(=O)N2CCC(N3CCC(C)CC3)CC2)cc1` [drawing 83], for which the IC50 was more than 10000 nM.

In the case of `CC1CCN(C2CCN(S(=O)(=O)c3ccc(C#N)cc3)CC2)CC1`, the IC50 was more than 10000 nM.

With `Cc1cc(C)c(S(=O)(=O)N2CCC(N3CCCCC3)CC2)c(C)c1`, the IC50 was more than 10000 nM.

As for `CC1CCN(C2CCN(S(=O)(=O)c3ccc(OC(F)F)cc3)CC2)CC1`, the IC50 was more than 10000 nM.

With `Cc1cc(C)c(S(=O)(=O)N2CCC(N3CCC(C(C)C)CC3)CC2)c(C)c1`, the IC50 is more than 10000 nM.

For `C#CCC1CCN(C2CCN(S(=O)(=O)c3ccc(Br)cc3)CC2)CC1`, the IC50 is more than 10000 nM.

Consider `CC1CCN(C2CCN(S(=O)(=O)c3cccc(Br)c3)CC2)CC1`, for which the IC50 is more than 10000 nM.

Another test deals with DLD-1. The test can be described thus: In vitro APC inhibition assay (MTT), DLD-1. It is filed as cell-based. Particulars: Homo sapiens, DLD-1, DLD-1 (truncated APC). The procedure:
as §1
Reagents required for the assay are: (3-[4,5-Dimethylthiazol-2-yl]-2,5-diphenyltetrazolium bromide; Thiazolyl blue; RPI corp., cat# M92050); RPMI-1640 or Medium of Choice (i.e. DMEM) without phenol red; 1M Hepes; 100 mM NaPyruvate; 1000× Gentamicin (50 mg/ml); 100× Penicillin/Streptomycin/Fungizone; 1×PBS; Triton X-100; 1N HCl and Isopropanol. To make the MTT solution (10×), MTT powder was dissolved into complete RPMI (or DMEM solution) to a final concentration of 5 mg/mL and was sterilized by filtration with a 0.2 μm filter. The MTT solubilization solution contained 10% Triton X-100, 0.1N and 80% isopropanol. MTT solution was diluted to 1× with complete medium at 12 mL per plate. The culture dishes (96 wells) were removed from the incubator and the media was discarded. […] The cells were removed from the incubator and the MTT solution was discarded.
as §2
Turning to `CC1CCCN(C2CCN(S(=O)(=O)c3ccc(C(F)(F)F)cc3)CC2)C1` (stereo not shown), the IC50 stood at 29 nM.

`O=S(=O)(c1cccc2ccccc12)N1CCC(N2CCCC2)CC1` yielded an IC50 of 3900 nM.

`COc1ccc(S(=O)(=O)N2CCC(N3CCC(C)CC3)CC2)c(OC)c1` returned an IC50 of 41 nM.

Molecule `COc1ccc(S(=O)(=O)N2CCC([N+]3(C)CCCC3)CC2)cc1` showed an IC50 of more than 10000 nM.

Regarding `C#CCC1CCN(C2CCN(S(=O)(=O)c3ccccc3N=[N+]=[N-])CC2)CC1`, the IC50 turned out to be 5300 nM.

As for `CC(C)c1cc(C(C)C)c(S(=O)(=O)N2CCC(N3CCCC3)CC2)c(C(C)C)c1`, the IC50 came out at 374 nM.

Turning to `C#CCC1CCN(C2CCN(S(=O)(=O)c3cccc(N=[N+]=[N-])c3)CC2)CC1`, the IC50 was found to be 1900 nM.

Turning to `CC1CCCN(C2CCN(S(=O)(=O)c3ccc(OC(F)(F)F)cc3)CC2)C1` (stereo not shown), the IC50 was determined as 31 nM.

As to `C#CCC1CCN(C2CCN(S(=O)(=O)c3ccc(N=[N+]=[N-])cc3)CC2)CC1`, the IC50 is 235 nM.

For `CC1CCN(C2CCN(Cc3ccc(OC(F)(F)F)cc3)CC2)CC1`, the IC50 turned out to be 19 nM.

On to `CC1CCCN(C2CCN(S(=O)(=O)c3ccc(F)cc3)CC2)C1` (stereo not shown), for which the IC50 turned out to be 255 nM.

In turn, `CC1CCCN(C2CCN(S(=O)(=O)c3ccc(Oc4ccccc4)cc3)CC2)C1` (stereo not shown) yielded an IC50 of 244 nM.

With `CC1CCCN(C2CCN(S(=O)(=O)c3ccc([N+](=O)[O-])cc3)CC2)C1` (stereo not shown), the half-maximal inhibitory concentration (IC50) is 366 nM.

In turn, `CC1CCN(C2CCN(S(=O)(=O)c3ccccc3OC(F)(F)F)CC2)CC1` returned an IC50 of 421 nM.

Regarding `CC1CCN(C2CCN(S(=O)(=O)c3ccc(OC(F)(F)F)c(C#CCCCCO)c3)CC2)CC1`, the IC50 was determined as 205 nM.

The molecule `CC1CCN(C2CCN(S(=O)(=O)c3cccc(C(C)(C)C)c3)CC2)CC1` returned an IC50 of 463 nM.

In the case of `CC1CCN(C2CCN(S(=O)(=O)c3ccc(OC(F)(F)F)c(Br)c3)CC2)CC1`, the IC50 turned out to be 29 nM.

On to `CC1CCN(C2CCN(S(=O)(=O)c3ccc(Oc4ccccc4)cc3)CC2)CC1`, for which the IC50 came to 253 nM.

In turn, `O=S(=O)(c1ccc(OC(F)(F)F)cc1)N1CCC(N2CCOCC2)CC1` registered an IC50 of 501 nM.

The values above are taken from patent US10082496B2, “Targeting emopamil binding protein (EBP) with small molecules that induce an abnormal feedback response by lowering endogenous cholesterol biosynthesis” (Board of Regents of the University of Texas System, priority 2014, dated 2018).
